Reference: ChEMBL document CHEMBL1130303, “Evaluation of piperidinoethoxy moiety as an antiestrogenic substituent in non-steroidal anti-estrogens: Fertility regulation” (1997)
Activity calls are given as the source filed them. The calls are words filed in the database; no cut-off is given here.

What was measured:
[1] = biological target: Estrogen receptor (Rattus norvegicus) (UniProt P06211+Q62986); assay: Relative Binding Affinity (RBA) for estrogen receptor in ovariectomized rats; type: protein assay
Rattus norvegicus [2] = organism: Rattus norvegicus; assay: Antifertility activity at maximal effective dose in adult female rat in an antiestrogen assay; type: functional
Rattus norvegicus [3] = organism: Rattus norvegicus; assay: Antifertility activity at maximal effective dose in adult female rat in an antiestrogen assay; Inactive; type: functional, organism-based
Rattus norvegicus [4] = assay: Antifertility activity at maximal effective dose in adult female rat in an antiestrogen assay; Inactive at 10 mg/kg dose; type: functional, organism-based; parameters: dose 10 mg/kg
Rattus norvegicus [5] = assay: Antifertility activity at maximal effective dose in adult female rat in an antiestrogen assay at 10 mg/kg; type: functional
Rattus norvegicus [6] = assay: Antifertility activity at maximal effective dose in adult female rat in an antiestrogen assay; Inactive at 5 mg/kg dose; type: functional, organism-based; parameters: dose 5 mg/kg

| relative binding affinity (RBA) [1] | SMILES | MED100 (Rattus norvegicus [2]) [mg/kg] | further results |
| --- | --- | --- | --- |
| 3.77 | COc1ccc2c(c1)OC(C)(C)[C@@H](c1ccccc1)[C@@H]2c1ccc(OCCN2CCCCC2)cc1 | 0.1 |  |
| 112 | CC1(C)Oc2cc(O)ccc2[C@@H](c2ccc(OCCN3CCCC3)cc2)[C@@H]1c1ccccc1 | 0.25 |  |
| 0.86 | COc1ccc2c(c1)OC(C)(C)C(c1ccccc1)=C2c1ccc(OCCN2CCCC2)cc1 | 5 |  |
| 9.2 | CC1(C)Oc2cc(O)ccc2C(c2ccc(OCCN3CCCC3)cc2)=C1c1ccccc1 | 15 |  |
| 7.35 | COc1ccc2c(c1)OCC(c1ccccc1)C2c1ccc(OCCN2CCCC2)cc1 (stereo not given) | 0.1 |  |
|  | CC1(C)Oc2cc(O)ccc2[C@@H](c2ccc(OCCN3CCCC3)cc2)[C@H]1c1ccccc1 |  | MED100 (Rattus norvegicus [3]): inactive |
| 0.53 | COc1ccc2c(c1)OC(C)(C)C(c1ccccc1)=C2c1ccc(OCCN2CCCCC2)cc1 | 10 |  |
| 1.45 | COc1ccc2c(c1)OCC(c1ccccc1)C2c1ccc(OCCN2CCCCC2)cc1 (stereo not given) | 0.25 |  |
| 0.16 | COc1ccc2c(c1)OC(C)(C)[C@H](c1ccccc1)[C@@H]2c1ccc(OCCN2CCCC2)cc1 |  | MED100 (Rattus norvegicus [4]): inactive |
|  | COc1ccc2c(c1)OC(C)(C)[C@H](c1ccccc1)[C@@H]2c1ccc(OCCN2CCCCC2)cc1 |  | Activity (Rattus norvegicus [5]): 90% |
| 50.1 | CC1(C)Oc2cc(O)ccc2[C@@H](c2ccc(OCCN3CCCCC3)cc2)[C@@H]1c1ccccc1 | 0.2 |  |
|  | CC1(C)Oc2cc(O)ccc2[C@@H](c2ccc(OCCN3CCCCC3)cc2)[C@H]1c1ccccc1 |  | MED100 (Rattus norvegicus [3]): inactive |
| 5.24 | COc1ccc2c(c1)OC(C)(C)[C@@H](c1ccccc1)[C@@H]2c1ccc(OCCN2CCCC2)cc1 [LEVORMELOXIFENE] | 0.25 |  |
| 2.11 | CC1(C)Oc2cc(O)ccc2C(c2ccc(OCCN3CCCCC3)cc2)=C1c1ccccc1 |  | MED100 (Rattus norvegicus [6]): inactive |
